Experimental data from PubChem BioAssay (NCI).
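Test compounds were applied to cells in 96-well plates for 48 hours at 5 doses. TGI: concentration producing complete growth inhibition.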

Key:
Assay in all cases: NCI anticancer screen, dose series, 48 h
[1] = tested on: HCC-2998 colon
[2] = tested on: UACC-257 melanoma
[3] = tested on: SN12C renal
[4] = tested on: U251 CNS
[5] = tested on: SNB-19 CNS
[6] = tested on: IGROV1 ovarian
[7] = tested on: NCI-H460 lung
[8] = tested on: SR leukemia
[9] = tested on: SF-268 CNS
[10] = tested on: NCI/ADR-RES ovarian
[11] = tested on: RXF 393 renal
[12] = tested on: PC-3 prostate
[13] = tested on: UACC-62 melanoma
[14] = tested on: SF-539 CNS
[15] = tested on: HL-60(TB) leukemia
[16] = tested on: A549 NSCLC
[17] = tested on: MDA-N
[18] = tested on: MDA-MB-231 breast
[19] = tested on: MALME-3M melanoma
[20] = tested on: HOP-62 NSCLC
[21] = tested on: CAKI-1 renal
[22] = tested on: DU-145 prostate
[23] = tested on: RPMI-8226 leukemia
[24] = tested on: SK-MEL-5 melanoma
[25] = tested on: MDA-MB-435
[26] = tested on: LOX IMVI melanoma
[27] = tested on: KM12 colon
[28] = tested on: NCI-H23 lung
[29] = tested on: OVCAR-8 ovarian
[30] = tested on: SF-295 CNS
[31] = tested on: ACHN renal
[32] = tested on: SK-MEL-28 melanoma
[33] = tested on: TK-10 renal
[34] = tested on: HCT-116 colon
[35] = tested on: BT-549 breast
[36] = tested on: HT29 colon
[37] = tested on: COLO 205 colon
[38] = tested on: MOLT-4 leukemia
[39] = tested on: T-47D breast
[40] = tested on: NCI-H522 lung
[41] = tested on: K-562 leukemia
[42] = tested on: SW-620 colon
[43] = tested on: CCRF-CEM leukemia
[44] = tested on: UO-31 renal
[45] = tested on: OVCAR-3 ovarian
[46] = tested on: SNB-75 CNS
[47] = tested on: 786-0 renal
[48] = tested on: EKVX NSCLC
[49] = tested on: NCI-H226 lung
[50] = tested on: HS 578T breast
[51] = tested on: HCT-15 colon
[52] = tested on: MCF7 breast
[53] = tested on: SK-OV-3 ovarian
[54] = tested on: M14 melanoma
[55] = tested on: HOP-92 NSCLC
[56] = tested on: SK-MEL-2 melanoma
[57] = tested on: OVCAR-5 ovarian
[58] = tested on: A498 renal
[59] = tested on: OVCAR-4 ovarian

Measured: TGI

CC1(C)C[C@H](O)[C@H](O)[C@]23C(=O)O[C@H](O)[C@H]2C(C=O)=CC[C@@H]13
not listed: [53] | [54] | [55] | [56] | [57] | [58] | [59]
> 100 µM: all other assays above

COc1ccc(N=C2C(=Nc3ccc(OC)cc3)N(S(=O)(=O)c3ccccc3)C(=S)N2c2ccc(OC)cc2)cc1
92.1 µM: [18]
38.8 µM: [46]
not listed: [2] | [7] | [15] | [19] | [26] | [36] | [43] | [58] | [59]
> 100 µM: all other assays above

O=c1c(O)c(-c2cc(O)c(O)cc2O)oc2cc(O)c(C3OC(CO)C(O)C(O)C3O)c(O)c12 (stereo not given)
not listed: [1] | [11] | [19] | [21] | [24] | [28] | [37] | [43]
> 100 µM: all other assays above

CSc1nncc2[nH]cnc12
not listed: [1] | [19] | [26] | [40] | [53] | [55] | [59]
> 100 µM: all other assays above
